{
  "source": "patent US7993668B2",
  "about": "“Nutrient composition and composition for prevention/mitigation of digestive tract depression” (Ajinomoto Co., Inc., priority 2004, dated 2011)",
  "system": "male rat",
  "assay": "Onset of diarrhea due to intragastric administration of an elemental diet in fasted rats (stool state ranked 1-4)",
  "type": "in vivo",
  "from_the_text": "According to a conventional method, under pentobarbital anesthesia, a catheter for elemental diet administration was inserted by operation in the stomach of a male rat (body weight about 270 g), and a recovery period of one week was given. For breeding, a regular rat feed and tap water were given, and free intake was allowed. After confirmation of recovery, the rat was fasted three nights to induce lower gastrointestinal function. The fasting schedule on the day before operation, the operation day and the day after operation in the case of surgery patients was imitated.\nOn the day of the test, the rats were divided into 3 groups, each rat was moved to a separate observation cage, and the onset of diarrhea due to the administration of an elemental diet shown below was observed. First, one pack (80 g) of elemental diet having the composition shown in Table 1 was dissolved in water (300 cc) and prepared to show 1 kcal/cc, which was used as elemental diet 1. Three groups of an elemental diet 1 administration group as a control, an elemental diet 2 administration group, to which 1.0 w/v % (0.88 w/v % as free glutamic acid) of sodium glutamate (MSG) was added, and an elemental diet 3 administration group, to which sodium chloride (0.35 w/v %) was added, were compared. Each test elemental diet was administered using an electric pump via the catheter inserted into the stomach. The administration was started from 10:30 AM and intermittently administered 4 times per hr at 7 mL/hr. Each test elemental diet administered to one rat was 28 mL in total. The state of stool was observed from the start of the administration until 10:30 AM the next morning and, based on the severity of the symptom, ranked in 4 levels of 1. normal stool or no stool, 2, soft stool (shape was maintained), 3, muddy stool (no shape) and 4, watery stool.\nA method according to Example 1 was employed. […] Each test elemental diet was administered using an electric pump via the catheter inserted into the stomach.\nA method according to Example 1 was employed. Three groups of an elemental diet 1 administration group having the composition shown in a separate table as a control, an elemental diet 6 administration group, to which 0.04 w/v % (0.036 w/v % as free guanylic acid) of sodium guanylate (GMP) was added, and an elemental diet 7 administration group, to which 0.20 w/v % (0.18 w/v % as free guanylic acid) was added, were compared. Each test elemental diet was administered using an electric pump via the catheter inserted into the stomach.",
  "key": {"[1]": {"conditions": "Example 1, elemental diet 3 with 0.35 w/v % sodium chloride, out of 11 cases"}, "[2]": {"conditions": "Example 3, elemental diet 6 with 0.04 w/v % sodium guanylate, out of 13 cases"}, "[3]": {"conditions": "Example 3, elemental diet 7 with 0.20 w/v % sodium guanylate, out of 13 cases"}},
  "data": [
    {"smiles": "[Cl-].[Na+]", "note": "[sodium chloride, reference compound]", "values": [
      {"measurement": "rank 1 observed", "setting": "[1]", "value": 1, "unit": "case"},
      {"measurement": "rank 3 observed", "setting": "[1]", "value": 6, "unit": "cases"}
    ]},
    {"smiles": "N[C@@H](CCC(=O)[O-])C(=O)[O-].[Na+].[Na+]", "note": "[sodium glutamate]", "values": [
      {"measurement": "improvement of diarrhea (stool rank) vs non-addition group", "setting": "Example 1, 1.0 w/v % sodium glutamate, Kruskal-Wallis, p<0.05", "value": "significant improvement effect"},
      {"measurement": "rank 2 soft stool observed", "setting": "po", "value": 1, "unit": "case"},
      {"measurement": "rank 3 muddy stool observed", "setting": "po", "value": 2, "unit": "cases"}
    ]},
    {"smiles": "Nc1nc2c(ncn2[C@@H]2O[C@H](COP(=O)([O-])[O-])[C@@H](O)[C@H]2O)c(=O)[nH]1.[Na+].[Na+]", "note": "[sodium guanylate]", "values": [
      {"measurement": "rank 1 normal stool or no stool observed", "setting": "Example 3, elemental diet 6 with 0.04 w/v % sodium guanylate (0.036 w/v % as free guanylic acid), out of 13 cases", "value": 3, "unit": "cases"},
      {"measurement": "rank 2 soft stool observed", "setting": "[2]", "value": 1, "unit": "case"},
      {"measurement": "rank 4 watery stool observed", "setting": "[2]", "value": 9, "unit": "cases"},
      {"measurement": "rank 1 normal stool or no stool observed", "setting": "Example 3, elemental diet 7 with 0.20 w/v % sodium guanylate (0.18 w/v % as free guanylic acid), out of 13 cases", "value": 3, "unit": "cases"},
      {"measurement": "rank 2 soft stool observed", "setting": "[3]", "value": 1, "unit": "case"},
      {"measurement": "rank 4 watery stool observed", "setting": "[3]", "value": 9, "unit": "cases"},
      {"measurement": "diarrhea symptom-improving effect by the addition", "setting": "Example 3, sodium guanylate 0.04 and 0.20 w/v % addition groups vs non-addition group", "value": "diarrhea symptom-improving effect was considered to be observed"}
    ]}
  ]
}
